Test results taken from patent US20090209535A1, “6-ETHER/THIOETHER-PURINES AS TOPOISOMERASE II CATALYTIC INHIBITORS AND THEIR USE IN THERAPY” (TOPOTARGET A/S, priority 2005, published 2009).
Where “and” joins values, the source holds several entries; their conditions need not be identical. Identical values can stand only once. Like-named read-outs stand apart in the source and are kept apart here.

Target: topoisomerase II α (Homo sapiens, UniProt P11388)
Assay: Topoisomerase II ATPase assay (coupled, NADH oxidation)
Assay type: biochemical
Parameters: made in house; host or cells: yeast (over-expressing yeast cells)
Experimental: The reaction was monitored spectrophotometrically at 340 nm using a Bio-Tek EL808 Ultra Micro plate Reader connected to a computer with KC4 Software installed (Bio-Tek Instruments, U.S.). The change in absorbance was related to ADP production using A340^1M=6220 cm^−1. […] The rate of ATP hydrolysis, V, was determined from the linear part of the curve.
The steady-state rate of ATP hydrolysis was determined using a coupled ATPase assay as described herein. […] Error bars represent SEM of two independent experiments each performed in duplicate.
The steady-state rate of ATP hydrolysis was determined as described in for FIG. 3 and as described herein. In this analysis, the rate of ATP hydrolysis in the absence of drug was set to one in all experiments. Error bars represent SEM of 2 or 3 independent experiments each preformed in duplicate.

Chain of topoisomerase II α (P11388 whole entry): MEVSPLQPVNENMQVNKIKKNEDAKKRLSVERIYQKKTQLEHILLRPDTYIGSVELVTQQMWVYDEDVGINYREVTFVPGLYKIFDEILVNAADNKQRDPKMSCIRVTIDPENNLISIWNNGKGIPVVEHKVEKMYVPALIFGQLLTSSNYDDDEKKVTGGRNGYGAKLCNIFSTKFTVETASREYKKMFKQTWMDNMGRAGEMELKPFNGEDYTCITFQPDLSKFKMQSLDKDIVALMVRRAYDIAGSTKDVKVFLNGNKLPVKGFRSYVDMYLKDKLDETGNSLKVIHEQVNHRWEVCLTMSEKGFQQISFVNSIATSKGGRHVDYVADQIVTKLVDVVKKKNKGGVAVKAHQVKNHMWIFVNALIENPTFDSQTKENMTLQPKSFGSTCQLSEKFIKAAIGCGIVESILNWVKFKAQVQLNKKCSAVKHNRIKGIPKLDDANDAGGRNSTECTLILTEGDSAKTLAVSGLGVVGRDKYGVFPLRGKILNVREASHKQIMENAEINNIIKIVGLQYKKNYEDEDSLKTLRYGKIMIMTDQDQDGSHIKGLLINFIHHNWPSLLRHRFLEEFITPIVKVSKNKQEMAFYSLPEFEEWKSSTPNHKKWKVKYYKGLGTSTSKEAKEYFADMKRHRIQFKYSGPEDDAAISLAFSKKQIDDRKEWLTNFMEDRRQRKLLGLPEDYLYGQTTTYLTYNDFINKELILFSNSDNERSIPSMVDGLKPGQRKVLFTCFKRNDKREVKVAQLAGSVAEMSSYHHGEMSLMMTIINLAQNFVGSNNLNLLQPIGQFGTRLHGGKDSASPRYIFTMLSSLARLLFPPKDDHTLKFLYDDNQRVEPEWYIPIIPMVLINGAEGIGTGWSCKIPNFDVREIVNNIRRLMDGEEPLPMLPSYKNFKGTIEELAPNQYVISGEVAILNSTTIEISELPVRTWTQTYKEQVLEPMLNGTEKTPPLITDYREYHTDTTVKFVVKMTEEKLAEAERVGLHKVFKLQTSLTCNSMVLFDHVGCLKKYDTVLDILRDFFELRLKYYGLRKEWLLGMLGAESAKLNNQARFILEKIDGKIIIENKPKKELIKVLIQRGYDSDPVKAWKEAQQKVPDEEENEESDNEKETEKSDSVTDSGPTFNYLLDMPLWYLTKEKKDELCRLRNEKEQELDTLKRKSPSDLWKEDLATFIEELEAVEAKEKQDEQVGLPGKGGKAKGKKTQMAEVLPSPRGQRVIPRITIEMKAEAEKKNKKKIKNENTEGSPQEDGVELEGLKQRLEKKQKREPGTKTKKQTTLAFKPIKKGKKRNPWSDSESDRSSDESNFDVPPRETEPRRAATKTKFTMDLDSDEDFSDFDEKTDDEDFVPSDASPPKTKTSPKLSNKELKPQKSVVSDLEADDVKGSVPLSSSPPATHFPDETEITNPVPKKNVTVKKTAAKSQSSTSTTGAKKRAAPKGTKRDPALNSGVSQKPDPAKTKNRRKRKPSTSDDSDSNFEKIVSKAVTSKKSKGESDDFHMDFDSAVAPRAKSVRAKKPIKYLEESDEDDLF

## Nc1nc(SCCc2ccccc2)c2nc[nH]c2n1 [NSC 35866, 2-amino-6-(phenylethylthio)-purine]
300 μM, in the presence of DNA, read-out: inhibition of the total ATPase activity
  inhibition at 300 µM: 75%
10 mM DTT in the reaction buffer
  inhibition of ATPase activity in the presence of DTT, in words: could inhibit ATPase activity
In the presence of DNA (DNA-stimulated), read-out: IC50, inhibition of ATPase activity
  IC50: 50 µM and 30 to 100 µM
Without DNA, read-out: IC50, inhibition of DNA-independent ATPase activity
  IC50: 300 µM
